In US6596772B1, “Phosphate mimics and methods of treatment using phosphatase inhibitors” (Sugen, Inc., priority 1999, dated 2003):
Where two headings read alike, the source gives them in different places.

Assays:
Assay in all cases: PTP IC50 assay, fluorescent substrate DiFMUP
Assay type in all cases: biochemical
PTP 1B = molecular target: T1, PTP 1B (Homo sapiens, UniProt P18031)
T1 construct: made in house; host or cells: Sf-9 insect cells (pFastBac-G2T)
T1 sequence (P18031 1-435): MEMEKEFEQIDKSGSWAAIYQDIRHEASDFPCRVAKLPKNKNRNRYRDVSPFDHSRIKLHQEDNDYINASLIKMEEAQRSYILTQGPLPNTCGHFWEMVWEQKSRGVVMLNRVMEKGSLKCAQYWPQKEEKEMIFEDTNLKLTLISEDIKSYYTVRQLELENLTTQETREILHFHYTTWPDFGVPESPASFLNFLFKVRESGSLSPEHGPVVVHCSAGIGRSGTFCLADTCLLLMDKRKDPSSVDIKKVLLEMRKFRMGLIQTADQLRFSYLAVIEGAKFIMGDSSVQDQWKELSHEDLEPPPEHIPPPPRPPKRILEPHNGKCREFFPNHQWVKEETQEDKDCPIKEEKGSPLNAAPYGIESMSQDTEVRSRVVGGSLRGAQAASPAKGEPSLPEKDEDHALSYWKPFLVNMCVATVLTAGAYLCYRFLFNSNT
Description: The PTP1b cDNA was amplified from human placenta single strand cDNA (Clontech RNA) using the following oligonucleotides: 5′oligo: 5′-[…] (SEQ ID NO: 4) 3′oligo: 5′-[…] (SEQ ID NO: 5) It was subsequently ligated into pFasBac G2TBamH1Xba-1 sites.
(§1) The following in vitro assay procedure is preferred to determine the level of activity and effect of the different compounds of the present invention on one or more of the PTPs. Similar assays can be designed along the same lines for any PTP using techniques well known in the art.
(§2) The catalytic assays described herein are performed in a 96-well format. The general procedure begins with the determination of PTP optimal pH using a three-component buffer system that minimizes ionic strength variations across a wide range of buffer pH. Next, the Michaelis-Menten constant, or Km, is determined for the substrate 6,8-difluoro-4-methylumbelliferyl phosphate (DiFMUP). This Km value is subsequently used as the substrate reaction concentration for compound screening. Finally, the test PTP is exposed to varying concentrations of compound for fifteen minutes and allowed to react with substrate for ten minutes. The results are plotted as percent inhibition versus compound concentration and the IC50 interpolated from the plot.
(§3) All assays were performed using DiFMUP as substrate. The optimum pH and substrate Km was determined for each PTP used.
(§4) PTPase activity was assayed at 25° C. in a 100-μl reaction mixture containing an appropriate concentration of DiFMUP as substrate. The reaction was initiated by addition of the purified PTP and quenched after 10 min by addition of 1% H2O2/100 mM NaCl. The non-enzymatic hydrolysis of the substrate was corrected by measuring the control without the addition of the enzyme. The amount of DiFMU produced was determined from the increase in the fluorescence (360 nm excitation/460 nm emission) over that of background in the absence of PTPase. To determine the kinetic parameter, Km, the initial velocities were measured at various substrate concentrations and the data were fitted to the Michaelis equation where velocity=(Vmax*[S])/(Km+[S]), and [S]=substrate reaction concentration.
(§5) The effect of the compounds on PTP was evaluated at 25° C. using DiFMUP as substrate. PTP was pre-incubated for fifteen minutes with various concentrations of compound. Substrate was then added at a fixed concentration (usually equal to the Km previously calculated). After 10 minutes, the reaction was quenched. The hydrolysis of DiFMUP was followed as described above. The percent inhibition was calculated as follows: Percent Inhibition=[(control signal−compound signal)/control signal]×100%. The IC50 was then determined by interpolation of a percent inhibition versus compound concentration plot.
(§6) Plasmids designed for bacterial GST-PTP fusion protein expression were derived by insertion of PCR-generated human PTP fragments into pGEX vectors (Pharmacia Biotech). Several of these constructs were then used to subclone phosphatases into pFastBac-1 for expression in Sf-9 insect cells. Oligonucleotides used for the initial amplification of PTP genes are as described above. The cDNAs were prepared using the Gilbo BRL superscript preamplification system on RNAs purchased from Clontech.

PTP SHP2 = molecular target: T2, PTP SHP2 (Homo sapiens, UniProt Q06124)
T2 construct: The catalytic domain was amplified using the following oligonucleotides; made in house; host or cells: Sf-9 insect cells (pFastBac-G2T)
T2 sequence (Q06124 247-517 limits assumed): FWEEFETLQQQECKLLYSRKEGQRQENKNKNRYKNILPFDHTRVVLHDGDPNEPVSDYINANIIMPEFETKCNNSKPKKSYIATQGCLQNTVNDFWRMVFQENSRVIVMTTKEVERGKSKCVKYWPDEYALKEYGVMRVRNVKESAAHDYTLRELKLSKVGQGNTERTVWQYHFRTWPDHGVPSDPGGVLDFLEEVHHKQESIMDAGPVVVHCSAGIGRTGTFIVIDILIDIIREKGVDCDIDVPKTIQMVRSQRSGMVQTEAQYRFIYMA
Description: SHP-2 cDNA was used as described earlier (Vogel W., et al.,1993, Science, 259:1611-4). The catalytic domain was amplified using the following oligonucleotides 5′oligo: 5′-[…]-3′ (SEQ ID NO: 2) 3′oligo: 5′-[…]-3′ (SEQ ID NO: 3) and subsequently subcloned into BamH1-Xba-1 sites. It was then ligated into pfas Bac-G2T BamH1-Xba-1 sites.
as §1, §2, §3, §4, §5, §6

PTP EPSILON = molecular target: T3, PTP EPSILON (Homo sapiens, UniProt P23469)
T3 construct: made in house; host or cells: Sf-9 insect cells (pFastBac-G2T); a pGEX 6P-1 construct also existed
T3 sequence (P23469 80-393 limits assumed): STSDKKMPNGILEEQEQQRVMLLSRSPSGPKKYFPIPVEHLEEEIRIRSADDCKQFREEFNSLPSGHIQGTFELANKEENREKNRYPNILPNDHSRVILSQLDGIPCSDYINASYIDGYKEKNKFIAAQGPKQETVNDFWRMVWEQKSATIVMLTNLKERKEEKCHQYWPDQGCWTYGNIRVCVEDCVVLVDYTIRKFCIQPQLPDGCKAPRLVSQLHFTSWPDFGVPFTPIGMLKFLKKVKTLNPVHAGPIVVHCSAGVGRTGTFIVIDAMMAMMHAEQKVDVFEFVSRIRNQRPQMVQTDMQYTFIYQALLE
Description: The PTPepsilon cDNA was amplified from human placenta single-strand cDNA (Clontech RNA) using the following oligonucleotides: 5′oligo: 5′-[…]-3′ (SEQ ID NO: 6) 3′oligo: 5′-[…]-3′ (SEQ ID NO: 7) After cloning this PCR product into the Bam HI/Xho I sites of pGEX 6P-1, this phosphatase was subcloned using the same restriction sites in pFastBac-G2T.
as §1, §2, §3, §4, §5, §6

[1] = DiFMUP as substrate, 25° C., read-out: PTP IC50 1B
[2] = DiFMUP as substrate, 25° C., read-out: PTP IC50 SHP2
[3] = DiFMUP as substrate, 25° C., read-out: PTP IC50 Epilson

CCNC(=O)c1ccc(-c2nc3cc(S(=O)(=O)C(F)(F)F)ccc3n2CC)cc1 [Example 41, N-Ethyl-4-(1-ethyl-5-trifluoromethanesulfonyl-1H-benzoimidazol-2-yl)-benzamide]
IC50 (PTP 1B; [1]): > 20 µM | IC50 (PTP SHP2; [2]): 19 µM | IC50 (PTP EPSILON; [3]): 13.5 µM

CCOC(=O)c1cc2cc(NS(=O)(=O)C(F)(F)F)ccc2n1CC(=O)O [Example 95, 1-Carboxymethyl-5-trifluoromethanesulfonylamino-1H-indole-2-carboxylic acid ethyl ester]
IC50 (PTP 1B; [1]): > 100 µM | IC50 (PTP SHP2; [2]): > 20 µM | IC50 (PTP EPSILON; [3]): > 100 µM

O=C(O)Cn1c(C(=O)O)cc2cc(N(S(=O)(=O)C(F)(F)F)S(=O)(=O)C(F)(F)F)ccc21 [Example 100, 1-Carboxymethyl-5-(N,N-ditrifluoromethanesulfonyl)amino-1H-indole-2-carboxylic acid]
IC50 (PTP 1B; [1]): > 100 µM | IC50 (PTP SHP2; [2]): > 20 µM | IC50 (PTP EPSILON; [3]): > 100 µM

O=C(O)c1cc2cc(NS(=O)(=O)C(F)(F)F)ccc2n1CC1CCCCC1 [Example 103, 1-Cyclohexylmethyl-5-trifluoromethanesulfonylamino-1H-indole-2-carboxylic acid]
IC50 (PTP 1B; [1]): > 100 µM | IC50 (PTP SHP2; [2]): 17.9 µM | IC50 (PTP EPSILON; [3]): 34.7 µM

CCOC(=O)c1cc2cc(N(S(=O)(=O)C(F)(F)F)S(=O)(=O)C(F)(F)F)ccc2n1CC(=O)O [Example 98, 1-Carboxymethyl-5-(N,N-ditrifluoromethanesulfonyl)amino-1H-indole-2-carboxylic acid ethyl ester]
IC50 (PTP 1B; [1]): > 100 µM | IC50 (PTP SHP2; [2]): > 20 µM | IC50 (PTP EPSILON; [3]): 41.6 µM

CCn1c(-c2ccc(C(=O)NCCN3CCCC3)cc2)nc2cc(S(=O)(=O)C(F)(F)F)ccc21 [Example 40, 4-(1-Ethyl-5-trifluoromethanesulfonyl-1H-benzoimidazol-2-yl)-N-(2-pyrrolidin-1-yl-ethyl)-benzamide]
IC50 (PTP 1B; [1]): > 20 µM | IC50 (PTP SHP2; [2]): > 100 µM | IC50 (PTP EPSILON; [3]): > 100 µM

CCn1c(C(=O)O)nc2cc(S(=O)(=O)C(F)(F)F)ccc21 [Example 42, 1-Ethyl-5-trifluoromethanesulfonyl-1H-benzoimidazole-2-carboxylic acid]
IC50 (PTP 1B; [1]): > 20 µM | IC50 (PTP SHP2; [2]): > 100 µM | IC50 (PTP EPSILON; [3]): 98 µM

Cn1c(C(=O)Nc2ccccc2)cc2cc(NS(=O)(=O)C(F)(F)F)ccc21 [Example 80, 1-Methyl-5-trifluoromethanesulfonylamino-1H-indole-2-carboxylic acid phenylamide]
IC50 (PTP 1B; [1]): > 20 µM | IC50 (PTP SHP2; [2]): 58.1 µM | IC50 (PTP EPSILON; [3]): 26.9 µM

O=[N+]([O-])c1ccccc1NCC(O)COc1ccc(S(=O)(=O)C(F)(F)F)cc1[N+](=O)[O-] (stereo not drawn) [Example 58, 1-(2-Nitro-phenylamino)-3-(2-nitro-4-trifluoromethanesulfonyl-phenoxy)-propan-2-ol]
IC50 (PTP 1B; [1]): 9.4 µM | IC50 (PTP SHP2; [2]): 4.4 µM | IC50 (PTP EPSILON; [3]): 29.1 µM

O=C(Nc1ccccc1)c1cc2cc(NS(=O)(=O)C(F)(F)F)ccc2[nH]1 [Example 81, 5-Trifluoromethanesulfonylamino-1H-indole-2-carboxylic acid phenylamide]
IC50 (PTP 1B; [1]): 14.6 µM | IC50 (PTP SHP2; [2]): 6.2 µM | IC50 (PTP EPSILON; [3]): 4.4 µM

O=C(Cc1cccc(CC(=O)Nc2ccc(S(=O)(=O)C(F)(F)F)cc2)c1)Nc1ccc(S(=O)(=O)C(F)(F)F)cc1 [Example 33, N-(4-Trifluoromethanesulfonyl-phenyl)-2-{3-[(4-trifluoromethanesulfonyl-phenylcarbamoyl)-methyl]-phenyl}-acetamide]
IC50 (PTP 1B; [1]): 2.3 µM | IC50 (PTP SHP2; [2]): 2.3 µM | IC50 (PTP EPSILON; [3]): 20.4 µM

Cc1cc2cc(NS(=O)(=O)C(F)(F)F)ccc2n1CC(=O)O [Example 79, (2-Methyl-5-trifluoromethanesulfonylamino-indol-1-yl)-acetic acid]
IC50 (PTP 1B; [1]): > 100 µM | IC50 (PTP SHP2; [2]): > 100 µM | IC50 (PTP EPSILON; [3]): > 20 µM

CCn1c(-c2ccc(C(=O)Nc3ccc(OC)cc3)cc2)nc2cc(S(=O)(=O)C(F)(F)F)ccc21 [Example 38, 4-(1-Ethyl-5-trifluoromethanesulfonyl-1H-benzoimidazol-2-yl)-N-(4-methoxy-phenyl)-benzamide]
IC50 (PTP 1B; [1]): 1.1 µM | IC50 (PTP SHP2; [2]): 1.1 µM | IC50 (PTP EPSILON; [3]): 5.1 µM

O=C(Cc1ccccc1CC(=O)Nc1ccc(S(=O)(=O)C(F)(F)F)cc1)Nc1ccc(S(=O)(=O)C(F)(F)F)cc1 [Example 32, N-(4-Trifluoromethanesulfonyl-phenyl)-2-{2-[(4-trifluoromethanesulfonyl-phenylcarbamoyl)-methyl]-phenyl}-acetamide]
IC50 (PTP 1B; [1]): 7.8 µM | IC50 (PTP SHP2; [2]): 14.6 µM | IC50 (PTP EPSILON; [3]): 17.4 µM

CCCCNC(=O)C(c1ccc(S(=O)(=O)C(F)(F)F)cc1)N(Cc1ccccc1)C(=O)c1ccccc1 (stereo not drawn) [Example 44, N-Benzyl-N-[butylcarbamoyl-(4-trifluoromethanesulfonyl-phenyl)-methyl]-benzamide]
IC50 (PTP 1B; [1]): 15.8 µM | IC50 (PTP SHP2; [2]): 22.7 µM | IC50 (PTP EPSILON; [3]): 19 µM

O=C(O)c1cc2cc(NS(=O)(=O)C(F)(F)F)ccc2n1Cc1ccccc1 [Example 102, 1-Benzyl-5-trifluoromethanesulfonylamino-1H-indole-2-carboxylic acid]
IC50 (PTP 1B; [1]): 43.1 µM | IC50 (PTP SHP2; [2]): 4 µM | IC50 (PTP EPSILON; [3]): 12.2 µM

O=C(O)c1cc2cc(NS(=O)(=O)C(F)(F)F)ccc2[nH]1 [Example 77, 5-Trifluoromethanesulfonylamino-1H-indole-2-carboxylic acid]
IC50 (PTP 1B; [1]): > 100 µM | IC50 (PTP SHP2; [2]): > 100 µM | IC50 (PTP EPSILON; [3]): > 20 µM

CC(C)(C)OC(=O)Cn1c(C(=O)O)cc2cc(NS(=O)(=O)C(F)(F)F)ccc21 [Example 96, 1-tert-Butoxycarbonylmethyl-5-trifluoromethanesulfonylamino-1H-indole-2-carboxylic acid]
IC50 (PTP 1B; [1]): 34.7 µM | IC50 (PTP SHP2; [2]): 9.1 µM | IC50 (PTP EPSILON; [3]): 31.2 µM

O=[N+]([O-])c1ccc(NCC(COc2ccc(S(=O)(=O)C(F)(F)F)cc2[N+](=O)[O-])Oc2ccc(S(=O)(=O)C(F)(F)F)cc2[N+](=O)[O-])cc1 (stereo not drawn) [Example 59, [2,3-Bis-(2-nitro-4-trifluoromethanesulfonyl-phenoxy)-propyl]-(4-nitro-phenyl)-amine]
IC50 (PTP 1B): 0.9 µM | IC50 (PTP SHP2): 0.2 µM | IC50 (PTP EPSILON): 38.1 µM
